Experimental data from US11111237B2, “Bicyclic compound and use thereof” (SK BIOPHARMACEUTICALS CO., LTD., priority 2019, dated 2021).
Structures can show the parent of a compound that is named as a salt.

Target: PRMT5-MEP50 enzyme complex (Homo sapiens (Human), UniProt O14744)
Test: PRMT5 enzyme activity in vitro assay (methylation of histone H4R3, ELISA absorbance at 450 nm)
Type: biochemical
Details: SAM, histone H4 peptide, room temperature 2 hours, 8 points from 10 μM to 0.128 nM
Summary of the method: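 Human PRMT5-MEP50 was prepared at 5 μg/mL with SAM at 2 μM and reacted 2 h at room temperature on plate-coated histone H4 (1-20) peptide. An 8-point 1:5 compound series ran from 10 μM to 0.128 nM. H4R3 methylation was detected by antibody/HRP ELISA at 450 nm to give IC50.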

Sequence of PRMT5-MEP50 enzyme complex (O14744 2-637): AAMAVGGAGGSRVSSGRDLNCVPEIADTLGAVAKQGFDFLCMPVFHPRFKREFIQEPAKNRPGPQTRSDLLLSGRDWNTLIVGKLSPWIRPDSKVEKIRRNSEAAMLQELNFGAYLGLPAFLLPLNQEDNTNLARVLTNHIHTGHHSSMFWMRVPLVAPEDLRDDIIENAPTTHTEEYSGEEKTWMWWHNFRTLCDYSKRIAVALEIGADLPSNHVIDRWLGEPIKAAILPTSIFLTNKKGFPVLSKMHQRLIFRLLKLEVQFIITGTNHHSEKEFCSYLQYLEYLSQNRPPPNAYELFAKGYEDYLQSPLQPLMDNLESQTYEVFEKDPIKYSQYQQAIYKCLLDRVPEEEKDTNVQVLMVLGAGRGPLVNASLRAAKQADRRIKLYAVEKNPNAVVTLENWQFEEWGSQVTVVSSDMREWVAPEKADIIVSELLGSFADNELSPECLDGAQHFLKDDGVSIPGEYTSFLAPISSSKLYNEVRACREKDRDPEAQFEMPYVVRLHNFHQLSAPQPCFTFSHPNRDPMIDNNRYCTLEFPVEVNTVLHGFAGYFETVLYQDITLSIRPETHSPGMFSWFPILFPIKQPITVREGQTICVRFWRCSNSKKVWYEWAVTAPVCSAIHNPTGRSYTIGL
Sequence of PRMT5-MEP50 enzyme complex (Q9BQA1 2-342 partner): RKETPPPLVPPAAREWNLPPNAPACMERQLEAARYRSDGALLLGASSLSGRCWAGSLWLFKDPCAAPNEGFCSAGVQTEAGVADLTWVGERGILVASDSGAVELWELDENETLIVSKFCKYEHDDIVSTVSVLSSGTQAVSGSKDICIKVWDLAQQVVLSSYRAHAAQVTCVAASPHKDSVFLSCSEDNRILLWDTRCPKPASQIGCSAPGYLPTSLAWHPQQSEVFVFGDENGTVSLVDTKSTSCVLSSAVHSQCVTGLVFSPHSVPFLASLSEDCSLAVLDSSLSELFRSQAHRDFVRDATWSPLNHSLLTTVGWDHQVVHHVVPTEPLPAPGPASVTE

Compound	IC50 [nM]
C[C@@H]1CN(C[C@H](O)CN2CCc3ccccc3C2)C(=O)c2ccc(O[C@H]3CCN(C)C3)cc2O1 [Example 264, (2R)-4-[(2R)-3-(3,4-dihydro-1H-isoquinolin-2-yl)-2-hydroxy-propyl]-2-methyl-8-[(3S)-1-methylpyrrolidin-3-yl]oxy-2,3-dihydro-1,4-benzoxazepin-5-one]	100 to 1000
O=C1c2ccc(OCC3CCCO3)cc2OCCN1C[C@H](O)CN1CCc2ccccc2C1 (stereo partly drawn) [Example 67, 4-[(2R)-3-(3,4-dihydro-1H-isoquinolin-2-yl)-2-hydroxy-propyl]-8-(tetrahydrofuran-2-ylmethoxy)-2,3-dihydro-1,4-benzoxazepin-5-one]	100 to 1000
CC1(C)CN(C[C@H](O)CN2CCc3ccccc3C2)C(=O)c2ccc(OC3CCN(C=O)CC3)cc2O1 [Example 181, 4-[[4-[(2R)-3-(3,4-dihydro-1H-isoquinolin-2-yl)-2-hydroxy-propyl]-2,2-dimethyl-5-oxo-3H-1,4-benzoxazepin-8-yl]oxy]piperidine-1-carbaldehyde]	100 to 1000
O=C1CCC(Oc2ccc3c(c2)OCCN(C[C@H](O)CN2CCc4ccccc4C2)C3=O)CN1 (stereo partly drawn) [Example 76, 4-[(2R)-3-(3,4-dihydro-1H-isoquinolin-2-yl)-2-hydroxy-propyl]-8-[(6-oxo-3-piperidyl)oxy]-2,3-dihydro-1,4-benzoxazepin-5-one]	100 to 1000
CC1CN(Cc2ccc3c(c2)OCCN(C[C@H](O)CN2CCc4ccccc4C2)C3=O)CCO1 (stereo partly drawn) [Example 30, 4-[(2R)-3-(3,4-dihydro-1H-isoquinolin-2-yl)-2-hydroxy-propyl]-8-[(2-methylmorpholin-4-yl)methyl]-2,3-dihydro-1,4-benzoxazepin-5-one]	1 to 100
CC1(C)CN(C[C@H](O)CN2CCc3ccccc3C2)C(=O)c2ccc(CN3CCOCC3)cc2O1 [Example 111, 4-[(2R)-3-(3,4-dihydro-1H-isoquinolin-2-yl)-2-hydroxy-propyl]-2,2-dimethyl-8-(morpholinomethyl)-3H-1,4-benzoxazepin-5-one]	100 to 1000
O=C1c2ccc(CN3CCCOCC3)cc2OCCN1C[C@H](O)CN1CCc2ccccc2C1 [Example 39, 4-[(2R)-3-(3,4-dihydro-1H-isoquinolin-2-yl)-2-hydroxy-propyl]-8-(1,4-oxazepan-4-ylmethyl)-2,3-dihydro-1,4-benzoxazepin-5-one]	100 to 1000
CC(C)N1CC(Oc2ccc3c(c2)OCCN(C[C@H](O)CN2CCc4ccccc4C2)C3=O)C1 [Example 95, 4-[(2R)-3-(3,4-dihydro-1H-isoquinolin-2-yl)-2-hydroxy-propyl]-8-(1-isopropylazetidin-3-yl)oxy-2,3-dihydro-1,4-benzoxazepin-5-one]	100 to 1000
CC1(C)CN(C[C@H](O)CN2CCc3ccccc3C2)C(=O)c2ccc(CN3CCCC3)cc2O1 [Example 179, 4-[(2R)-3-(3,4-dihydro-1H-isoquinolin-2-yl)-2-hydroxy-propyl]-2,2-dimethyl-8-(pyrrolidin-1-ylmethyl)-3H-1,4-benzoxazepin-5-one]	100 to 1000
O=C1c2ccc(Oc3ncc(F)cn3)cc2OCCN1C[C@H](O)CN1CCc2ccccc2C1 [Example 211, 4-[(2R)-3-(3,4-dihydro-1H-isoquinolin-2-yl)-2-hydroxy-propyl]-8-(5-fluoropyrimidin-2-yl)oxy-2,3-dihydro-1,4-benzoxazepin-5-one]	100 to 1000
CN1CCN(C(=O)c2ccc3c(c2)OCCN(C[C@H](O)CN2CCc4ccccc4C2)C3=O)CC1 [Example 178, 4-[(2R)-3-(3,4-dihydro-1H-isoquinolin-2-yl)-2-hydroxy-propyl]-8-(4-methylpiperazine-1-carbonyl)-2,3-dihydro-1,4-benzoxazepin-5-one]	100 to 1000
CC1(CN2CCC(Oc3ccc4c(c3)OCCN(C[C@H](O)CN3CCc5ccccc5C3)C4=O)CC2)COC1 [Example 165, 4-[(2R)-3-(3,4-dihydro-1H-isoquinolin-2-yl)-2-hydroxypropyl]-8-[[1-[(3-methyloxetan-3-yl)methyl]-4-piperidyl]oxy]-2,3-dihydro-1,4-benzoxazepin-5-one]	1 to 100
CCN(CC)C(=O)COc1ccc2c(c1)OCCN(C[C@H](O)CN1CCc3ccccc3C1)C2=O [Example 75, 2-[[4-[(2R)-3-(3,4-dihydro-1H-isoquinolin-2-yl)-2-hydroxy-propyl]-5-oxo-2,3-dihydro-1,4-benzoxazepin-8-yl]oxy]-N,N-diethyl-acetamide]	100 to 1000
CC(C)(C)OC(=O)N1CC=C(c2ccc3c(c2)OCCN(C[C@H](O)CN2CCc4ccccc4C2)C3=O)CC1 [Example 14, Tert-butyl 4-[4-[(2R)-3-(3,4-dihydro-1H-isoquinolin-2-yl)-2-hydroxy-propyl]-5-oxo-2,3-dihydro-1,4-benzoxazepin-8-yl]-3,6-dihydro-2H-pyridine-1-carboxylate]	100 to 1000
O=C1c2ccc(OCc3cc(Cl)nc(Cl)c3)cc2OCCN1C[C@H](O)CN1CCc2ccccc2C1 [Example 59, 8-[(2,6-dichloro-4-pyridyl)methoxy]-4-[(2R)-3-(3,4-dihydro-1H-isoquinolin-2-yl)-2-hydroxy-propyl]-2,3-dihydro-1,4-benzoxazepin-5-one]	100 to 1000
O=C1c2ccc(OC3CCN(CCF)CC3)cc2OCCN1C[C@H](O)CN1CCc2ccccc2C1 [Example 163, 4-[(2R)-3-(3,4-dihydro-1H-isoquinolin-2-yl)-2-hydroxy-propyl]-8-[[1-(2-fluoroethyl)-4-piperidyl]oxy]-2,3-dihydro-1,4-benzoxazepin-5-one]	100 to 1000
O=C1c2ccc(C(=O)N3C4CCC3COC4)cc2OCCN1C[C@H](O)CN1CCc2ccccc2C1 [Example 189, 4-[(2R)-3-(3,4-dihydro-1H-isoquinolin-2-yl)-2-hydroxy-propyl]-8-(3-oxa-8-azabicyclo[3.2.1]octan-8-carbonyl)-2,3-dihydro-1,4-benzoxazepin-5-one]	100 to 1000
C[C@@H]1CN(C[C@H](O)CN2CCc3ccccc3C2)C(=O)c2ccc(OC3CCN(C[C@@H](C)O)CC3)cc2O1 [Example 268, (2R)-4-[(2R)-3-(3,4-dihydro-1H-isoquinolin-2-yl)-2-hydroxy-propyl]-8-[[1-[(2R)-2-hydroxypropyl]-4-piperidyl]oxy]-2-methyl-2,3-dihydro-1,4-benzoxazepin-5-one]	100 to 1000
O=C1c2ccc(CN3CCC[C@H]3CO)cc2OCCN1C[C@H](O)CN1CCc2ccccc2C1 [Example 46, 4-[(2R)-3-(3,4-dihydro-1H-isoquinolin-2-yl)-2-hydroxy-propyl]-8-[[(2S)-2-(hydroxymethyl)pyrrolidin-1-yl]methyl]-2,3-dihydro-1,4-benzoxazepin-5-one]	100 to 1000
O=C1c2ccc(OS(=O)(=O)C(F)(F)F)cc2CCCN1C[C@H](O)CN1CCc2ccccc2C1 [Example 8, [2-[(2R)-3-(3,4-dihydro-1H-isoquinolin-2-yl)-2-hydroxy-propyl]-1-oxo-4,5-dihydro-3H-2-benzazepin-7-yl]trifluoromethanesulfonate]	100 to 1000
CN1CCN(C[C@H](O)CN2CCc3ccccc3C2)C(=O)c2ccc(CCC(F)(F)F)cc21 [Example 116, 4-[(2R)-3-(3,4-dihydro-1H-isoquinolin-2-yl)-2-hydroxy-propyl]-1-methyl-8-(3,3,3-trifluoropropyl)-2,3-dihydro-1,4-benzodiazepin-5-one]	100 to 1000
O=C1c2ccc(CCC(F)(F)F)cc2OCCN1C[C@H](O)CN1CCc2ccccc2C1 [Example 13, 4-[(2R)-3-(3,4-dihydro-1H-isoquinolin-2-yl)-2-hydroxy-propyl]-8-(3,3,3-trifluoropropyl)-2,3-dihydro-1,4-benzoxazepin-5-one]	1 to 100
O=C1c2ccc(Cl)nc2OCCN1C[C@H](O)CN1CCc2ccccc2C1 [Example 153, 8-chloro-4-[(2R)-3-(3,4-dihydro-1H-isoquinolin-2-yl)-2-hydroxy-propyl]-2,3-dihydropyrido[3,2-f][1,4]oxazepin-5-one]	100 to 1000
O=C1c2ccc(O[C@@H]3CCN(CCO)C[C@H]3F)cc2OCCN1C[C@H](O)CN1CCc2ccccc2C1 [Example 253, dihydrochloride]	100 to 1000
CC(=O)N1CC[C@@H](Oc2ccc3c(c2)N(C)CCN(C[C@H](O)CN2CCc4ccccc4C2)C3=O)C1 [Example 123, 8-[(3R)-1-acetylpyrrolidin-3-yl]oxy-4-[(2R)-3-(3,4-dihydro-1H-isoquinolin-2-yl)-2-hydroxy-propyl]-1-methyl-2,3-dihydro-1,4-benzodiazepin-5-one]	100 to 1000
CC(=O)N1C2CCC1CC(Oc1ccc3c(c1)OCCN(C[C@H](O)CN1CCc4ccccc4C1)C3=O)C2 (stereo partly drawn) [Example 173, 8-[(8-acetyl-8-azabicyclo[3.2.1]octan-3-yl)oxy]-4-[(2R)-3-(3,4-dihydro-1H-isoquinolin-2-yl)-2-hydroxy-propyl]-2,3-dihydro-1,4-benzoxazepin-5-one]	1 to 100
C[C@@H]1CN(C[C@H](O)CN2CCc3ccccc3C2)C(=O)c2ccc(O[C@@H]3CCN(C)C3)cc2O1 [Example 273, (2R)-4-[(2R)-3-(3,4-dihydro-1H-isoquinolin-2-yl)-2-hydroxy-propyl]-2-methyl-8-[(3R)-1-methylpyrrolidin-3-yl]oxy-2,3-dihydro-1,4-benzoxazepin-5-one]	100 to 1000
CCN1C2CCC1CC(Oc1ccc3c(c1)N(C)CCN(C[C@H](O)CN1CCc4ccccc4C1)C3=O)C2 (stereo partly drawn) [Example 137, 4-[(2R)-3-(3,4-dihydro-1H-isoquinolin-2-yl)-2-hydroxy-propyl]-8-[(8-ethyl-8-azabicyclo[3.2.1]octan-3-yl)oxy]-1-methyl-2,3-dihydro-1,4-benzodiazepin-5-one]	1 to 100
C[C@@H]1CCCN1Cc1ccc2c(c1)OCCN(C[C@H](O)CN1CCc3ccccc3C1)C2=O [Example 36, 4-[(2R)-3-(3,4-dihydro-1H-isoquinolin-2-yl)-2-hydroxy-propyl]-8-[[(2R)-2-methylpyrrolidin-1-yl]methyl]-2,3-dihydro-1,4-benzoxazepin-5-one]	100 to 1000
